{"source": "patent US10794932B2", "about": "“Biosensor for the detection of a biological target, and method for manufacturing the same” (The Governing Council of The University of Toronto, priority 2016, dated 2020)", "key": {"rmTLR3": {"target": "T1, rmTLR3 (Mus musculus, UniProt Q99MB1)", "T1 construct": "purchased", "T1 sequence (Q99MB1 26-905)": "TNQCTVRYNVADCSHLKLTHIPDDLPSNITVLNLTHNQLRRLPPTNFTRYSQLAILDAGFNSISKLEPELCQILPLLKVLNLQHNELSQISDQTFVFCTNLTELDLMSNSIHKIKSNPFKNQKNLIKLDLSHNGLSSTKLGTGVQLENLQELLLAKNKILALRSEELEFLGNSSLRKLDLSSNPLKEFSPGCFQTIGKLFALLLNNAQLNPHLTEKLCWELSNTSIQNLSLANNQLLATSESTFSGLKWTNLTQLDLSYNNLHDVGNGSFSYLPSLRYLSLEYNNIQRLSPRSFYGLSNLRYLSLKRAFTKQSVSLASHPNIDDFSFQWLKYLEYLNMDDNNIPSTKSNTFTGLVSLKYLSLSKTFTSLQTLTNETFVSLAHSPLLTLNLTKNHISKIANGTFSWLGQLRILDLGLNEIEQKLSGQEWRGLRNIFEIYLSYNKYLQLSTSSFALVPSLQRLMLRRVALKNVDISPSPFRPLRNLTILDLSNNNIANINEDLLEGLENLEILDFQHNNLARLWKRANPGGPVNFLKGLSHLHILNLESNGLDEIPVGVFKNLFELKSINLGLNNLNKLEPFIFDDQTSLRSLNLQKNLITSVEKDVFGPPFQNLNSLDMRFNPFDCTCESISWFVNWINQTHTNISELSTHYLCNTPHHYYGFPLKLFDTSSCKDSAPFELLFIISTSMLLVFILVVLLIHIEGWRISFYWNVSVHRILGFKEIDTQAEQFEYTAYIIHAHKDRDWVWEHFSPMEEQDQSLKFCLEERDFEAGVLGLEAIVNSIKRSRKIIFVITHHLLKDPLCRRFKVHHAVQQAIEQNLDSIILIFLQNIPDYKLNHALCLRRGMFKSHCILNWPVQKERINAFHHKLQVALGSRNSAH", "assay": "Selectivity test, TLR3 sensor, EIS", "assay_type": "binding", "conditions": "10 μM"}, "rmTLR5": {"target": "T2, rmTLR5 (Mus musculus, UniProt Q9JLF7)", "T2 construct": "purchased", "T2 sequence (Q9JLF7 27-859)": "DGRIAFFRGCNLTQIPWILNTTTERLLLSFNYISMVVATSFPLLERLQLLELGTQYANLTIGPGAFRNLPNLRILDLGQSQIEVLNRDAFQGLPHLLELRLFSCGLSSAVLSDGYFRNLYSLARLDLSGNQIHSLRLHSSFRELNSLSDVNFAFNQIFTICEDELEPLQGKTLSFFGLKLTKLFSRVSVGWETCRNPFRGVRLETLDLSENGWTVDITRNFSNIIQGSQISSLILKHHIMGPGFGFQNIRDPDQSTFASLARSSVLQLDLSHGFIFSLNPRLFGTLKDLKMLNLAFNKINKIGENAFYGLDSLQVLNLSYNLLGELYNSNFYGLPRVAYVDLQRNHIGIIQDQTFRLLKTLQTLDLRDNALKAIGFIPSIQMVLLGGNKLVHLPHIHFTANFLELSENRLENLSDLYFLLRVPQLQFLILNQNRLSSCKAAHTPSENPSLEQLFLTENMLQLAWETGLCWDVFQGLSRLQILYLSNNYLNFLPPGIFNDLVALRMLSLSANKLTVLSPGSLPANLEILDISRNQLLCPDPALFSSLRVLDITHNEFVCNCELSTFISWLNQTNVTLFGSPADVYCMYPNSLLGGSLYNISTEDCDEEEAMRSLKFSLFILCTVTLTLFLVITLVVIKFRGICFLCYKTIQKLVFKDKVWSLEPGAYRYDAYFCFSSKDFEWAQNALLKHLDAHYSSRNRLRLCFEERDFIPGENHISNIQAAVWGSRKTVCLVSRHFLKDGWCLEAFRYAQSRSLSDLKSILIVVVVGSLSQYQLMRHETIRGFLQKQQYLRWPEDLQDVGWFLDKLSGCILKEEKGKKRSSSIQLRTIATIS", "assay": "Selectivity test, TLR5 sensor, EIS", "assay_type": "binding", "conditions": "10 μM", "procedure": "TLR sensors were prepared using fresh, cleaned gold electrodes. The electrodes were immersed in a 2 mM 1-lipoic acid n-hydroxysuccinimide ester (LPA) ethanol solution for 48 hours at 277 K. The electrodes were then rinsed thoroughly using absolute ethanol and blown dry under nitrogen before incubation in 200 μg/ml rmTLR1, 200 μg/ml rmTLR2 and 200 μg/ml ‘rmTLR1 and 2’ mixture for 72 hours at 277 K. The rmTLR1 and 2 mixture was prepared by mixing 200 μg/ml rmTLR1 and 200 μg/ml rmTLR2 with a volume ratio of 1:1. The final concentration of each component was 100 μg/ml and the total concentration of the combined TLR protein content was 200 μg/ml. Following the supplier's recommended conditions, all TLRs were prepared in PBS buffer (pH˜7.4). The electrodes were rinsed with an excess volume of Milli-Q water and blown dry under nitrogen. An ethanolamine-tris buffer solution was prepared by dissolving 1.2 g of ethanolamine and 0.121 g of Tris base in 20 mL of water, the pH was adjusted to 8.4 using hydrochloric acid. […]\nAll electrochemical measurements were carried out using a cell with a three-electrode configuration in an enclosed Faraday cage. […] The experimental EIS curves were evaluated to determine the film resistance using ZSimpWin 2.0 software. […]"}}, "data": [{"substance": "Pam3CSK4", "values": [{"measurement": "electrochemical response (selectivity test)", "setting": "rmTLR3", "result": "slight signal variations"}, {"measurement": "electrochemical response (selectivity test)", "setting": "rmTLR5", "result": "slight signal variations"}]}]}
